Experimental data taken from ChEMBL document CHEMBL1130921, “The cholesterol metabolite cholest-4-en-3-one and its 3-oxo derivatives suppress body weight gain, body fat accumulation and serum lipid concentration in mice” (Bioorg Med Chem Lett, 1998).

Key:
Mus musculus [1] = species: Mus musculus; assay: Feed efficiency was calculated by dividing body weight gain by feed consumption in mouse; assay type: functional
Mus musculus [2] = species: Mus musculus; assay: Evaluated for potency in CDF1 mice and the inhibition of body weight gain was determined; assay type: functional
Mus musculus [3] = species: Mus musculus; assay: Evaluated for potency in CDF1 mice and the ability of it to decrease feed consumption was determined; assay type: functional
Mus musculus [4] = species: Mus musculus; assay: Compound was evaluated for its potency in CDF1 mice and the abdominal fat weight was determined.; assay type: functional, Abdomen
Mus musculus [5] = species: Mus musculus; assay: Compound was evaluated for its potency in CDF1 mice and the serum triglyceride levels were determined; assay type: ADME, organism-based
Mus musculus [6] = species: Mus musculus; assay: Compound was evaluated for its potency in CDF1 mice and the serum cholesterol levels were determined; assay type: ADME, organism-based
Mus musculus [7] = species: Mus musculus; assay: Compound was evaluated for its potency in CDF1 mice and the serum metabolite levels were determined; assay type: ADME, organism-based
Mus musculus [8] = species: Mus musculus; assay: Compound was evaluated for its potency in CDF1 mice and the abdominal fat weight was determined; assay type: functional, Abdomen

SMILES | Feed efficiency (Mus musculus [1]) | Body weight gain (Mus musculus [2]) | Feed consumption (Mus musculus [3]) | Abdominal fat (Mus musculus [4]) | Serum triglyceride (Mus musculus [5]) | Serum cholesterol (Mus musculus [6]) | Serum metabolite (Mus musculus [7]) | Abdominal fat (Mus musculus [8])
CC(C)CCC[C@@H](C)[C@H]1CC[C@H]2[C@@H]3C[C@H](O)[C@]4(O)CC(=O)CC[C@]4(C)[C@H]3CC[C@]12C | 0.11 | 0.58 g/day | 5.39 g/day |  |  |  |  | 
CC(C)CCC[C@@H](C)[C@H]1CC[C@H]2[C@@H]3CC[C@@H]4CC(=O)CC[C@]4(C)[C@H]3CC[C@]12C | 0.09 | 0.5 g/day | 5.39 g/day | 1.25 g | 291.2 mg/dL | 161.3 mg/dL | 22 mg/dL | 
CC(C)CCC[C@@H](C)[C@H]1CC[C@H]2[C@@H]3CC[C@H]4CC(=O)CC[C@]4(C)[C@H]3CC[C@]12C [CHOLESTAN-3-ONE] | 0.06 | 0.28 g/day | 4.6 g/day | 0.92 g | 201.7 mg/dL | 134.1 mg/dL | 23 mg/dL | 
CC(C)CCC[C@@H](C)[C@H]1CC[C@H]2[C@@H]3C[C@@H](O)C4=CC(=O)CC[C@]4(C)[C@H]3CC[C@]12C | 0.05 | 0.28 g/day | 5.7 g/day | 0.8 g | 120 mg/dL | 136.7 mg/dL | 0 mg/dL | 
CC(C)CCC[C@@H](C)[C@H]1CC[C@H]2[C@@H]3CCC4CC(O)CC[C@]4(C)[C@H]3CC[C@]12C (some centres undefined) | 0.09 | 0.58 g/day | 6.48 g/day |  |  |  |  | 
CC(C)CCC[C@@H](C)[C@H]1CC[C@H]2[C@@H]3C[C@H](Br)[C@]4(Br)CC(=O)CC[C@]4(C)[C@H]3CC[C@]12C | 0.08 | 0.43 g/day | 5.72 g/day |  |  |  |  | 
CC(C)CCC[C@@H](C)[C@H]1CC[C@H]2[C@@H]3CC=C4CC(=O)CC[C@]4(C)[C@H]3CC[C@]12C [CHOLEST-5-EN-3-ONE] | 0.03 | -0.1 g/day | 3.62 g/day | 0.48 g | 87.5 mg/dL | 122.1 mg/dL | 0 mg/dL | 
CC(C)CCC[C@@H](C)[C@H]1CC[C@H]2[C@@H]3CC=C4CC(OC(=O)c5ccccc5)CC[C@]4(C)[C@H]3CC[C@]12C (some centres undefined) | 0.08 | 0.46 g/day | 5.57 g/day |  |  |  |  | 
CC(C)CCC[C@@H](C)[C@H]1CC[C@H]2[C@@H]3CCC4=CC(=O)CC[C@]4(C)[C@H]3CC[C@]12C [4-CHOLESTEN 3-ONE] | 0.06 | 0.35 g/day | 5.43 g/day |  | 218.3 mg/dL | 115.8 mg/dL | 22 mg/dL | 0.68 g
CC(C)CCC[C@@H](C)[C@H]1CC[C@H]2[C@@H]3CC[C@@H]4CC(O)CC[C@]4(C)[C@H]3CC[C@]12C (some centres undefined) | 0.09 | 0.55 g/day | 6.1 g/day |  |  |  |  | 
CC(C)CCC[C@@H](C)[C@H]1CC[C@H]2[C@@H]3CC[C@@]45O[C@@H]4C(=O)CC[C@]5(C)[C@H]3CC[C@]12C | 0.08 | 0.46 g/day | 6.14 g/day | 1.12 g | 218 mg/dL | 141.6 mg/dL | 0 mg/dL | 
CC[C@H](/C=C/[C@@H](C)[C@H]1CC[C@H]2[C@@H]3CC=C4CC(O)CC[C@]4(C)[C@H]3CC[C@]12C)C(C)C (some centres undefined) | 0.09 | 0.57 g/day | 6.3 g/day |  |  |  |  | 
CC(C)CCC[C@@H](C)[C@H]1CC[C@H]2[C@@H]3CC[C@H]4CC(O)CC[C@]4(C)[C@H]3CC[C@]12C (some centres undefined) | 0.07 | 0.38 g/day | 5.45 g/day | 0.9 g | 212.7 mg/dL | 148.1 mg/dL | 23 mg/dL | 
CC(C)CCC[C@@H](C)[C@H]1CC[C@H]2[C@@H]3CC(=O)C4=CC(=O)CC[C@]4(C)[C@H]3CC[C@]12C | -0.06 | -0.36 g/day | 6 g/day | 0.3 g | 133.6 mg/dL | 110 mg/dL | 0 mg/dL | 
CC[C@H](CC[C@@H](C)[C@H]1CC[C@H]2[C@@H]3CCC4CC(O)CC[C@]4(C)[C@H]3CC[C@]12C)C(C)C (some centres undefined) | 0.09 | 0.49 g/day | 5.43 g/day |  |  |  |  | 
CC(C)CCC[C@@H](C)[C@H]1CC[C@H]2[C@@H]3C=CC4=CC(=O)CC[C@]4(C)[C@H]3CC[C@]12C | 0.07 | 0.32 g/day | 4.71 g/day | 0.9 g | 172.6 mg/dL | 112.7 mg/dL | 22 mg/dL | 
CC(C)CCC[C@@H](C)[C@H]1CC[C@H]2[C@@H]3C[C@H](Br)C4=CC(=O)CC[C@]4(C)[C@H]3CC[C@]12C | 0.06 | 0.26 g/day | 4.2 g/day | 0.81 g | 257.3 mg/dL | 176.8 mg/dL | 22 mg/dL | 
CC(C)CCC[C@@H](C)[C@H]1CC[C@H]2[C@@H]3CCC4=CC(=O)C=C[C@]4(C)[C@H]3CC[C@]12C | 0.03 | 0.15 g/day | 4.94 g/day | 0.61 g | 266.9 mg/dL | 165.4 mg/dL | 0 mg/dL | 
CC(C)CCC[C@@H](C)[C@H]1CC[C@H]2[C@@H]3CC=C4CCCC[C@]4(C)[C@H]3CC[C@]12C | 0.08 | 0.56 g/day | 6.95 g/day |  | 253.6 mg/dL | 165.8 mg/dL | 0 mg/dL | 
CCCCCCCCC(=O)OC1CC[C@@]2(C)C(=CC[C@H]3[C@@H]4CC[C@H]([C@H](C)CCCC(C)C)[C@@]4(C)CC[C@@H]32)C1 (some centres undefined) | 0.1 | 0.52 g/day | 5.28 g/day |  |  |  |  | 
CC(C)CCC[C@@H](C)[C@H]1CC[C@H]2[C@@H]3CCC4=C(Br)C(=O)CC[C@]4(C)[C@H]3CC[C@]12C | 0.08 | 0.52 g/day | 6.58 g/day |  |  |  |  | 
CC(=O)OC1CC[C@@]2(C)C(=CC[C@H]3[C@@H]4CC[C@H]([C@H](C)CCCC(C)C)[C@@]4(C)CC[C@@H]32)C1 (some centres undefined) | 0.1 | 0.52 g/day | 5.28 g/day |  |  |  |  | 
CC(C)CCC[C@@H](C)[C@H]1CC[C@H]2[C@@H]3CCC4=C(CSc5ccccc5)C(=O)CC[C@]4(C)[C@H]3CC[C@]12C | 0.09 | 0.56 g/day | 6.23 g/day |  |  |  |  | 
CC(C)CCC[C@@H](C)[C@H]1CC[C@H]2[C@@H]3CC=C4C=C(N5CCCC5)CC[C@]4(C)[C@H]3CC[C@]12C | -0.03 | -0.18 g/day | 6.1 g/day | 0.41 g | 277.7 mg/dL | 158.1 mg/dL | 22 mg/dL | 
CC[C@H](CC[C@@H](C)[C@H]1CC[C@H]2[C@@H]3CCC4=CC(=O)CC[C@]4(C)[C@H]3CC[C@]12C)C(C)C | 0.08 | 0.4 g/day | 4.94 g/day | 1 g | 188.3 mg/dL | 164.6 mg/dL | 0 mg/dL | 
CC[C@H](/C=C/[C@@H](C)[C@H]1CC[C@H]2[C@@H]3CC=C4CC(=O)CC[C@]4(C)[C@H]3CC[C@]12C)C(C)C | 0.08 | 0.52 g/day | 6.37 g/day |  |  |  |  | 
CC(=O)OC1=CC2=CC[C@H]3[C@@H]4CC[C@H]([C@H](C)CCCC(C)C)[C@@]4(C)CC[C@@H]3[C@@]2(C)CC1 | 0.06 | 0.33 g/day | 5.64 g/day | 1.03 g | 119.9 mg/dL | 187.5 mg/dL | 22 mg/dL | 
CC(C)CCC[C@@H](C)[C@H]1CC[C@H]2[C@@H]3CCC4C[C@@H](O)CC[C@]4(C)[C@H]3CC[C@]12C (some centres undefined) | 0.09 | 0.52 g/day | 5.83 g/day |  |  |  |  | 
CC(C)CCC[C@@H](C)[C@H]1CC[C@H]2[C@@H]3C=CC4=CC(=O)C=C[C@]4(C)[C@H]3CC[C@]12C | 0.05 | 0.27 g/day | 5.41 g/day |  | 390.4 mg/dL | 206.3 mg/dL | 0 mg/dL | 
